pIC50: −log10 of the molar value. Each block holds one molecule with its values, some of them ahead of it.
How the values were obtained:
CDK7 (human) = CDK7 (human) (UniProt P50613); experiment: KINOMEscan competition binding; conditions: compound 10.0 µM
RIOK2 (human) = RIOK2 (human) (UniProt Q9BVS4); experiment: KINOMEscan competition binding; conditions: compound 10.0 µM
MYLK4 (human) = MYLK4 (human) (UniProt Q86YV6); experiment: KINOMEscan competition binding; conditions: compound 10.0 µM
PIM2 (human) [1] = biological target: PIM2 (human) (UniProt Q9P1W9); experiment: KINOMEscan competition binding; conditions: compound 10.0 µM
Chain of PIM2 (human) (Q9P1W9 whole entry, looked up): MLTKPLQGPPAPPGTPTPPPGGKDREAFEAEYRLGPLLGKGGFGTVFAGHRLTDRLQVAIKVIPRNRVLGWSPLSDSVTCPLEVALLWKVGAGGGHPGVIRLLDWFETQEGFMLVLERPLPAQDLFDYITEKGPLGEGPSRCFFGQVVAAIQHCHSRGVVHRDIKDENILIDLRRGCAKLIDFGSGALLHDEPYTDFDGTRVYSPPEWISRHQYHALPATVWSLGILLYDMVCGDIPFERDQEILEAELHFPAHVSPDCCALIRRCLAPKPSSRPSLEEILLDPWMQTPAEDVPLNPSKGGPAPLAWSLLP

MAP2K3 (human) = MAP2K3 (human) (UniProt P46734); experiment: KINOMEscan competition binding; conditions: compound 10.0 µM
MAPK8 (human) = MAPK8 (human) (UniProt P45983); experiment: KINOMEscan competition binding; conditions: compound 10.0 µM
RPS6KA1 KD2 (human) = RPS6KA1 KD2 (human) (UniProt Q15418); experiment: KINOMEscan competition binding; conditions: compound 10.0 µM
PIM3 (human) = PIM3 (human) (UniProt Q86V86); experiment: KINOMEscan competition binding; conditions: compound 10.0 µM
PIK3CB (human) = PIK3CB (human) (UniProt P42338); experiment: KINOMEscan competition binding; conditions: compound 10.0 µM
Chain of PIK3CB (human) (P42338 whole entry, looked up): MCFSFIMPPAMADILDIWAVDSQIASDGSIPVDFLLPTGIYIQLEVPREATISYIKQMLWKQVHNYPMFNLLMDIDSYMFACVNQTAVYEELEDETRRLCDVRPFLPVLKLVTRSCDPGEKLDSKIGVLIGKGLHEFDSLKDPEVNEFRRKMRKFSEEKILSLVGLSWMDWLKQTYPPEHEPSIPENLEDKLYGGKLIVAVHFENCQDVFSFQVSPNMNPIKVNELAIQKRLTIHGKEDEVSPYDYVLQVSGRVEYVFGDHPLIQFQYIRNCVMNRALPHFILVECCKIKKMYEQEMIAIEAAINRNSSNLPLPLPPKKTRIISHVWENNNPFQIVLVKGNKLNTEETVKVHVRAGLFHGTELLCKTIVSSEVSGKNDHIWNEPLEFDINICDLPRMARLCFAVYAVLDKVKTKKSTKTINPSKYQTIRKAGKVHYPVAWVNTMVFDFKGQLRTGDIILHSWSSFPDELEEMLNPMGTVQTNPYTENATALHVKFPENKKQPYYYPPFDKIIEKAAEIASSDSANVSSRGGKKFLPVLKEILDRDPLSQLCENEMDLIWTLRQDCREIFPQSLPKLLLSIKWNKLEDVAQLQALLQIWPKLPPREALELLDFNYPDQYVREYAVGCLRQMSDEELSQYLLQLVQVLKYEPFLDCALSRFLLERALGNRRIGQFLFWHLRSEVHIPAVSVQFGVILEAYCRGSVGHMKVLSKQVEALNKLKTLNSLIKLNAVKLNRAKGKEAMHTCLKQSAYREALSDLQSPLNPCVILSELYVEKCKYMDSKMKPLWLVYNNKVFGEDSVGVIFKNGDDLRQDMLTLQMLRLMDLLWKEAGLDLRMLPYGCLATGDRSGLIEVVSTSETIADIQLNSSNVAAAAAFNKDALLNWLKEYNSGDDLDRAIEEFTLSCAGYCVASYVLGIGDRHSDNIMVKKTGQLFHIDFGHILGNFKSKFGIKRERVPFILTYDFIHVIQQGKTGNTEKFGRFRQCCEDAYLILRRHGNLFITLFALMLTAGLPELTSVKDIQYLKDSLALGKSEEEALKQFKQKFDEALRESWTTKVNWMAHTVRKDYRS

CSNK2A1 (human) = CSNK2A1 (human) (UniProt P68400); experiment: KINOMEscan competition binding; conditions: compound 10.0 µM
Chain of CSNK2A1 (human) (P68400 whole entry, looked up): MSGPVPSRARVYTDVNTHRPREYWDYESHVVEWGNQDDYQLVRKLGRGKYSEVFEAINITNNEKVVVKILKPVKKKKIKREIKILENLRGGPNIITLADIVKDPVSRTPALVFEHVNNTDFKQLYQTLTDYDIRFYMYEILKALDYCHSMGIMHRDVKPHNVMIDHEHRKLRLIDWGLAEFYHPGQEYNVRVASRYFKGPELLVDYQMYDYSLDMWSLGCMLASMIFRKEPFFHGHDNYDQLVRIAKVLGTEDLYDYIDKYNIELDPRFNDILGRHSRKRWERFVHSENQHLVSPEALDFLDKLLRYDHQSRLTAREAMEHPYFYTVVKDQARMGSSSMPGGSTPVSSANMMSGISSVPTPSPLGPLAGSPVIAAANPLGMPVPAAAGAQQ

PIK3CD (human) = PIK3CD (human) (UniProt O00329); experiment: KINOMEscan competition binding; conditions: compound 10.0 µM
TTK (human) = TTK (human) (UniProt P33981); experiment: KINOMEscan competition binding; conditions: compound 10.0 µM
DAPK3 (human) = DAPK3 (human) (UniProt O43293); experiment: KINOMEscan competition binding; conditions: compound 10.0 µM
Chain of DAPK3 (human) (O43293 whole entry, looked up): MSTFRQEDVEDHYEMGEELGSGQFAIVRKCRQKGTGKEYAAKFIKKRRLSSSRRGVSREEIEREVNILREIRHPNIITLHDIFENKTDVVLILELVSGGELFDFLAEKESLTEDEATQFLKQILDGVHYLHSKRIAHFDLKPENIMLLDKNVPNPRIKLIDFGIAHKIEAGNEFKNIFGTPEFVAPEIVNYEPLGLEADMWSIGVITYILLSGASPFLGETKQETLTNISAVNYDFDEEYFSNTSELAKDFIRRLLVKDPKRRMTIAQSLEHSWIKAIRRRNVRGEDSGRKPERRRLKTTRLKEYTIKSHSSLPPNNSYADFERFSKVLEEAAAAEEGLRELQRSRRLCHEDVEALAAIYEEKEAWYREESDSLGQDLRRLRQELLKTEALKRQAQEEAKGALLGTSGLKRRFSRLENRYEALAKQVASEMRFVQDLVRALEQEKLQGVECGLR

CSNK2A2 (human) = CSNK2A2 (human) (UniProt P19784); experiment: KINOMEscan competition binding; conditions: compound 10.0 µM
Chain of CSNK2A2 (human) (P19784 whole entry, looked up): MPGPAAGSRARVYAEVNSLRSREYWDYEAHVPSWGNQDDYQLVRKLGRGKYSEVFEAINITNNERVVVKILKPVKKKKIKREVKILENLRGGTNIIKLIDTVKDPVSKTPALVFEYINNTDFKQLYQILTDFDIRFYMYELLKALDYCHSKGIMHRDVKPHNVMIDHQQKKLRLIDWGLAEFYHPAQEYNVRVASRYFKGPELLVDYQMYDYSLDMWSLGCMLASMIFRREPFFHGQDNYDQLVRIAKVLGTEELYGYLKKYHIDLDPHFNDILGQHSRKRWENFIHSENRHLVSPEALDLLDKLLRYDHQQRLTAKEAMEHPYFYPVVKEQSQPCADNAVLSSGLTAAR

TGFBR2 (human) = TGFBR2 (human) (UniProt P37173); experiment: KINOMEscan competition binding; conditions: compound 10.0 µM
[2] = biological target: JAK1 JH2 pseudokinase (human) (UniProt P23458); experiment: KINOMEscan competition binding; conditions: compound 10.0 µM
CLK2 (human) = CLK2 (human) (UniProt P49760); experiment: KINOMEscan competition binding; conditions: compound 10.0 µM
Chain of CLK2 (human) (P49760 whole entry, looked up): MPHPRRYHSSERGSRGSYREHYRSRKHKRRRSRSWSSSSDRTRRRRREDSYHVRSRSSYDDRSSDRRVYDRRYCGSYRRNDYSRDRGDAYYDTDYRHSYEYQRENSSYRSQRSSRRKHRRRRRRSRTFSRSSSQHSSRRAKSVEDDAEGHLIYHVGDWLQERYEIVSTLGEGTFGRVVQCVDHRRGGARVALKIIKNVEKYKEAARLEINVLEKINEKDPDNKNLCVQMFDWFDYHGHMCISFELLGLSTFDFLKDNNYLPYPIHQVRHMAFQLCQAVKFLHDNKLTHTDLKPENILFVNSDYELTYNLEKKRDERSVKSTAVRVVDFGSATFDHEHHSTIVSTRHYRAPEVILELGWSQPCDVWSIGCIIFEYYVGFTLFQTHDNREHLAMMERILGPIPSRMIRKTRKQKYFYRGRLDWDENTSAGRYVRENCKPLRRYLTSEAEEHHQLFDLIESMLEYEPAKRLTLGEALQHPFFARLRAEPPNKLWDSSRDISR

DAPK1 (human) = DAPK1 (human) (UniProt P53355); experiment: KINOMEscan competition binding; conditions: compound 10.0 µM
GSK3A (human) = GSK3A (human) (UniProt P49840); experiment: KINOMEscan competition binding; conditions: compound 10.0 µM
ZAP70 (human) = ZAP70 (human) (UniProt P43403); experiment: KINOMEscan competition binding; conditions: compound 10.0 µM
Chain of ZAP70 (human) (P43403 whole entry, looked up): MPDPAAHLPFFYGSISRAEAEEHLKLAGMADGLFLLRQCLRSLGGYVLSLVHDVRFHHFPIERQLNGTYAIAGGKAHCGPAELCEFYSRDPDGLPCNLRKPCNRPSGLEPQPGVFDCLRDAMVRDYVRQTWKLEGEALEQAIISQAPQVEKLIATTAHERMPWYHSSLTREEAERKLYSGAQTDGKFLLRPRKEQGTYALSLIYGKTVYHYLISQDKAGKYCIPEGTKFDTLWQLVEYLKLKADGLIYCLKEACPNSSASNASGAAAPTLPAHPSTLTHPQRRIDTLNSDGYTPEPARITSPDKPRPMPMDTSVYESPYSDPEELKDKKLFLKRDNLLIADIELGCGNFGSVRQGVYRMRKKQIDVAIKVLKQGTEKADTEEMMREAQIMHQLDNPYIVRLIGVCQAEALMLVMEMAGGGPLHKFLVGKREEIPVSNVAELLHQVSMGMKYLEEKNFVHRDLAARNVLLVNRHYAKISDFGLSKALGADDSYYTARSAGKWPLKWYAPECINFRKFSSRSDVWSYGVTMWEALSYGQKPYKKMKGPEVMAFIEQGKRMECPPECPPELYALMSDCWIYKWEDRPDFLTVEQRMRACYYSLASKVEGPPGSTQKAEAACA

DYRK1B (human) = DYRK1B (human) (UniProt Q9Y463); experiment: KINOMEscan competition binding; conditions: compound 10.0 µM
ACVR2A (human) = ACVR2A (human) (UniProt P27037); experiment: KINOMEscan competition binding; conditions: compound 10.0 µM
PAK2 (human) = PAK2 (human) (UniProt Q13177); experiment: KINOMEscan competition binding; conditions: compound 10.0 µM
HIPK1 (human) = HIPK1 (human) (UniProt Q86Z02); experiment: KINOMEscan competition binding; conditions: compound 10.0 µM
MAP2K4 (human) = MAP2K4 (human) (UniProt P45985); experiment: KINOMEscan competition binding; conditions: compound 10.0 µM
DAPK2 (human) = DAPK2 (human) (UniProt Q9UIK4); experiment: KINOMEscan competition binding; conditions: compound 10.0 µM
STK17A (human) = STK17A (human) (UniProt Q9UEE5); experiment: KINOMEscan competition binding; conditions: compound 10.0 µM
NUAK2 (human) = NUAK2 (human) (UniProt Q9H093); experiment: KINOMEscan competition binding; conditions: compound 10.0 µM
PIM1 (human) [3] = biological target: PIM1 (human) (UniProt P11309); experiment: KINOMEscan competition binding; conditions: compound 10.0 µM
Chain of PIM1 (human) (P11309 whole entry, looked up): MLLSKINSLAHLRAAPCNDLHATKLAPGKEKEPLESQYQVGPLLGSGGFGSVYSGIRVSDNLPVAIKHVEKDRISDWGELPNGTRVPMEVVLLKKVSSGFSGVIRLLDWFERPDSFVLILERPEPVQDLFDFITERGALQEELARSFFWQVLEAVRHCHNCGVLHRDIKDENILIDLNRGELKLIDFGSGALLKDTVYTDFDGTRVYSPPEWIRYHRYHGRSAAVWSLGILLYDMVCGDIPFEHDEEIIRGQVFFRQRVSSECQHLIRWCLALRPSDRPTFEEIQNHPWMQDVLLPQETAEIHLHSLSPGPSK

CLK4 (human) = CLK4 (human) (UniProt Q9HAZ1); experiment: KINOMEscan competition binding; conditions: compound 10.0 µM
[4] = biological target: TYK2 JH2 pseudokinase (human) (UniProt P29597); experiment: KINOMEscan competition binding; conditions: compound 10.0 µM
STK17B (human) = STK17B (human) (UniProt O94768); experiment: KINOMEscan competition binding; conditions: compound 10.0 µM
MAPK10 (human) = MAPK10 (human) (UniProt P53779); experiment: KINOMEscan competition binding; conditions: compound 10.0 µM
MKNK2 (human) = MKNK2 (human) (UniProt Q9HBH9); experiment: KINOMEscan competition binding; conditions: compound 10.0 µM
GAK (human) = GAK (human) (UniProt O14976); experiment: KINOMEscan competition binding; conditions: compound 10.0 µM
CLK1 (human) = CLK1 (human) (UniProt P49759); experiment: KINOMEscan competition binding; conditions: compound 10.0 µM
CSNK1D (human) = CSNK1D (human) (UniProt P48730); experiment: KINOMEscan competition binding; conditions: compound 10.0 µM
BTK (human) = BTK (human) (UniProt Q06187); experiment: KINOMEscan competition binding; conditions: compound 10.0 µM
RPS6KA6 KD2 (human) = RPS6KA6 KD2 (human) (UniProt Q9UK32); experiment: KINOMEscan competition binding; conditions: compound 10.0 µM
TLK1 (human) = TLK1 (human) (UniProt Q9UKI8); experiment: KINOMEscan competition binding; conditions: compound 10.0 µM
STK24 (human) = STK24 (human) (UniProt Q9Y6E0); experiment: KINOMEscan competition binding; conditions: compound 10.0 µM
ACVR2B (human) = ACVR2B (human) (UniProt Q13705); experiment: KINOMEscan competition binding; conditions: compound 10.0 µM
PLK4 (human) = PLK4 (human) (UniProt O00444); experiment: KINOMEscan competition binding; conditions: compound 10.0 µM
RPS6KA2 KD2 (human) = RPS6KA2 KD2 (human) (UniProt Q15349); experiment: KINOMEscan competition binding; conditions: compound 10.0 µM
Chain of RPS6KA2 KD2 (human) (Q15349 whole entry, looked up): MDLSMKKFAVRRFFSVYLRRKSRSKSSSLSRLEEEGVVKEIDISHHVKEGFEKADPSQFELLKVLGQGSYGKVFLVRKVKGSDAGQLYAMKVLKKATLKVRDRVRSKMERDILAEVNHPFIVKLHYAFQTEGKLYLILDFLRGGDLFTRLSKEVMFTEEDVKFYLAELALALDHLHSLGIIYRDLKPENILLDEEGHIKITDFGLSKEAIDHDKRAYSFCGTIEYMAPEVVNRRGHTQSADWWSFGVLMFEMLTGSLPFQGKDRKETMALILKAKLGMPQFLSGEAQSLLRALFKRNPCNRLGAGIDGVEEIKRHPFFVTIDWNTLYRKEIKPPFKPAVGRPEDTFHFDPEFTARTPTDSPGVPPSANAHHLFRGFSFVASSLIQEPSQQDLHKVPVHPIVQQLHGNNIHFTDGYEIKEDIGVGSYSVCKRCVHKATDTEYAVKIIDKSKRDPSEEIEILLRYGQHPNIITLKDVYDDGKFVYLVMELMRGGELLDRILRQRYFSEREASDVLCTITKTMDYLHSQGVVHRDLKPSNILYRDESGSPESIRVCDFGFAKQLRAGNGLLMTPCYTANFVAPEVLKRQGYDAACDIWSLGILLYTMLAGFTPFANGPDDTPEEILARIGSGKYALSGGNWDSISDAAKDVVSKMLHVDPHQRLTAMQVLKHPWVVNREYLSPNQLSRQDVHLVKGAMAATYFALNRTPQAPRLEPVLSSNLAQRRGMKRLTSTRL

TAOK1 (human) = TAOK1 (human) (UniProt Q7L7X3); experiment: KINOMEscan competition binding; conditions: compound 10.0 µM
MAP3K7 (human) = MAP3K7 (human) (UniProt O43318); experiment: KINOMEscan competition binding; conditions: compound 10.0 µM
PIM2 (human) [5] = biological target: PIM2 (human) (UniProt Q9P1W9); experiment: SelectScreen, TR FRET
PIM1 (human) [6] = biological target: PIM1 (human) (UniProt P11309); experiment: SelectScreen, TR FRET
RPS6KA4 KD2 (human) = RPS6KA4 KD2 (human) (UniProt O75676); experiment: KINOMEscan competition binding; conditions: compound 10.0 µM
TAOK3 (human) = TAOK3 (human) (UniProt Q9H2K8); experiment: KINOMEscan competition binding; conditions: compound 10.0 µM
CSNK1G2 (human) = CSNK1G2 (human) (UniProt P78368); experiment: KINOMEscan competition binding; conditions: compound 10.0 µM
PDGFRB (human) = PDGFRB (human) (UniProt P09619); experiment: KINOMEscan competition binding; conditions: compound 10.0 µM
SRPK1 (human) = SRPK1 (human) (UniProt Q96SB4); experiment: KINOMEscan competition binding; conditions: compound 10.0 µM
RIOK3 (human) = RIOK3 (human) (UniProt O14730); experiment: KINOMEscan competition binding; conditions: compound 10.0 µM
PIK3CG (human) = PIK3CG (human) (UniProt P48736); experiment: KINOMEscan competition binding; conditions: compound 10.0 µM
PLK1 (human) = PLK1 (human) (UniProt P53350); experiment: KINOMEscan competition binding; conditions: compound 10.0 µM
RIOK1 (human) = RIOK1 (human) (UniProt Q9BRS2); experiment: KINOMEscan competition binding; conditions: compound 10.0 µM
BMP2K (human) = BMP2K (human) (UniProt Q9NSY1); experiment: KINOMEscan competition binding; conditions: compound 10.0 µM
RPS6KA5 KD2 (human) = RPS6KA5 KD2 (human) (UniProt O75582); experiment: KINOMEscan competition binding; conditions: compound 10.0 µM
SRPK3 (human) = SRPK3 (human) (UniProt Q9UPE1); experiment: KINOMEscan competition binding; conditions: compound 10.0 µM
AAK1 (human) = AAK1 (human) (UniProt Q2M2I8); experiment: KINOMEscan competition binding; conditions: compound 10.0 µM
[7] = system: EIF2AK4 KD2 (human), Q9P2K8 [S808G]; experiment: KINOMEscan competition binding; conditions: compound 10.0 µM

- kinase still bound, per cent of control (CDK7 (human)): 20%
- kinase still bound, per cent of control (RIOK2 (human)): 5.5%
- kinase still bound, per cent of control (MYLK4 (human)): 32%
- kinase still bound, per cent of control (PIM2 (human) [1]): 0.45%
- kinase still bound, per cent of control (MAP2K3 (human)): 17%
- kinase still bound, per cent of control (MAPK8 (human)): 14%
- kinase still bound, per cent of control (RPS6KA1 KD2 (human)): 17%
- kinase still bound, per cent of control (PIM3 (human)): 4%
- kinase still bound, per cent of control (PIK3CB (human)): 4.5%
- kinase still bound, per cent of control (CSNK2A1 (human)): 26%
- kinase still bound, per cent of control (PIK3CD (human)): 23%
- kinase still bound, per cent of control (TTK (human)): 21%
- kinase still bound, per cent of control (DAPK3 (human)): 16%
- kinase still bound, per cent of control (CSNK2A2 (human)): 24%
- kinase still bound, per cent of control (TGFBR2 (human)): 5.8%
- kinase still bound, per cent of control [2]: 30%
- kinase still bound, per cent of control (CLK2 (human)): 7.7%
- kinase still bound, per cent of control (DAPK1 (human)): 4.4%
- kinase still bound, per cent of control (GSK3A (human)): 20%
- kinase still bound, per cent of control (ZAP70 (human)): 8.2%
- kinase still bound, per cent of control (DYRK1B (human)): 7.4%
- kinase still bound, per cent of control (ACVR2A (human)): 25%
- kinase still bound, per cent of control (PAK2 (human)): 32%
- kinase still bound, per cent of control (HIPK1 (human)): 0.45%
- kinase still bound, per cent of control (MAP2K4 (human)): 3.9%
- kinase still bound, per cent of control (DAPK2 (human)): 12%
- kinase still bound, per cent of control (STK17A (human)): 0.05%
- kinase still bound, per cent of control (NUAK2 (human)): 21%
- kinase still bound, per cent of control (PIM1 (human) [3]): 4.9%
- kinase still bound, per cent of control (CLK4 (human)): 20%
- kinase still bound, per cent of control [4]: 2.2%
- kinase still bound, per cent of control (STK17B (human)): 0.4%
- kinase still bound, per cent of control (MAPK10 (human)): 31%
- kinase still bound, per cent of control (MKNK2 (human)): 11%
- kinase still bound, per cent of control (GAK (human)): 5%
- kinase still bound, per cent of control (CLK1 (human)): 17%
- kinase still bound, per cent of control (CSNK1D (human)): 30%
- kinase still bound, per cent of control (BTK (human)): 18%
- kinase still bound, per cent of control (RPS6KA6 KD2 (human)): 30%
- kinase still bound, per cent of control (TLK1 (human)): 22%
- kinase still bound, per cent of control (STK24 (human)): 27%
- kinase still bound, per cent of control (ACVR2B (human)): 20%
- kinase still bound, per cent of control (PLK4 (human)): 18%
- kinase still bound, per cent of control (RPS6KA2 KD2 (human)): 24%
- kinase still bound, per cent of control (TAOK1 (human)): 6%
- kinase still bound, per cent of control (MAP3K7 (human)): 34%
- pIC50 (PIM2 (human) [5]): 5.75
- pIC50 (PIM1 (human) [6]): 6.02
Compound: N=C1NC(=O)/C(=C/c2ccc(-c3cccc4cc[nH]c34)o2)S1

- kinase still bound, per cent of control (PIM2 (human) [1]): 1.2%
- kinase still bound, per cent of control (RPS6KA4 KD2 (human)): 0.95%
- kinase still bound, per cent of control (TAOK3 (human)): 26%
- kinase still bound, per cent of control (PIM3 (human)): 10%
- kinase still bound, per cent of control (PIK3CB (human)): 2.4%
- kinase still bound, per cent of control (CSNK2A1 (human)): 24%
- kinase still bound, per cent of control (CSNK1G2 (human)): 24%
- kinase still bound, per cent of control (PDGFRB (human)): 0%
- kinase still bound, per cent of control (DAPK3 (human)): 4.8%
- kinase still bound, per cent of control (SRPK1 (human)): 31%
- kinase still bound, per cent of control (CSNK2A2 (human)): 32%
- kinase still bound, per cent of control (RIOK3 (human)): 13%
- kinase still bound, per cent of control (PIK3CG (human)): 22%
- kinase still bound, per cent of control (PLK1 (human)): 17%
- kinase still bound, per cent of control (CLK2 (human)): 0.45%
- kinase still bound, per cent of control (DAPK1 (human)): 3.6%
- kinase still bound, per cent of control (ZAP70 (human)): 11%
- kinase still bound, per cent of control (RIOK1 (human)): 14%
- kinase still bound, per cent of control (BMP2K (human)): 22%
- kinase still bound, per cent of control (HIPK1 (human)): 9%
- kinase still bound, per cent of control (RPS6KA5 KD2 (human)): 19%
- kinase still bound, per cent of control (DAPK2 (human)): 6.4%
- kinase still bound, per cent of control (STK17A (human)): 6.3%
- kinase still bound, per cent of control (SRPK3 (human)): 28%
- kinase still bound, per cent of control (PIM1 (human) [3]): 9.5%
- kinase still bound, per cent of control (STK17B (human)): 0.6%
- kinase still bound, per cent of control (AAK1 (human)): 4.4%
- kinase still bound, per cent of control (CLK1 (human)): 16%
- kinase still bound, per cent of control [7]: 27%
- kinase still bound, per cent of control (RPS6KA2 KD2 (human)): 29%
Compound: O=C1NC(=O)/C(=C/c2c[nH]c(=O)c(-c3ccc(C(=O)Nc4ccc(N5CCNCC5)cc4)cc3)c2)S1

From the kinase profiling compilation of Christmann-Franck et al. (2016)
